Source: US9346761B2, “Arginine methyltransferase inhibitors and uses thereof” (Epizyme, Inc., priority 2013, dated 2016)
Where two headings read alike, the source gives them in different places.

Experiments:
Full-length human PRMT6 = target: T1, Full-length human PRMT6 (Homo sapiens, UniProt Q96LA8); assay: PRMT6 biochemical assay (3H-SAM Flashplate, peptide substrate)
T1 construct: Flag-PRMT6-His was eluted with 200 ug/ml FLAG peptide in the same buffer; made in house; host or cells: HEK 293F cells (BacMam virus, pFastBacMam)
T1 sequence (Q96LA8 with tags, fused parts or gaps): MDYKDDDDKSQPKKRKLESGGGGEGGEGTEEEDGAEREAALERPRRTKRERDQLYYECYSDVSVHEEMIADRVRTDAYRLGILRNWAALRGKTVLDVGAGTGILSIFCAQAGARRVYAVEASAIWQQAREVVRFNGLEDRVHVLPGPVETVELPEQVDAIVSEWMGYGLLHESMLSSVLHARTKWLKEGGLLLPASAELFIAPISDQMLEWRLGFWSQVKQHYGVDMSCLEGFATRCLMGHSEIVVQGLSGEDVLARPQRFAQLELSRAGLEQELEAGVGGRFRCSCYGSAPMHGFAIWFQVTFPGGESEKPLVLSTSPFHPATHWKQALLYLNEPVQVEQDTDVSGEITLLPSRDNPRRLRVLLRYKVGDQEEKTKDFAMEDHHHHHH
Method in brief: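 Flag-PRMT6-His from baculovirus-infected cells, preincubated with compound 30 min at room temperature, then SAM/3H-SAM and biotinylated H4 36-50 peptide added; 20 mM Bicine pH 7.6, TCEP, BSG, Tween 20. Quenched with cold SAM, captured on streptavidin Flashplates; % inhibition from SAH/DMSO controls, 3- or 4-parameter IC50 fit.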

[1] = test system: mono-methyl arginine in RKO cells; assay: RKO methylation assay, In Cell Western for mono-methyl arginine and DNA content; format: cell-based; conditions: Homo sapiens
[2] = In Cell Western, RKO cells, 72 hours, percent activation of mono-methyl arginine signal, read-out: EC30

SMILES	IC50 (Full-length human PRMT6) [µM]	EC30 [1, 2] [µM]	EC30 ([1]; RKO, 72 h) [µM]
CN(CCN)Cc1cn[nH]c1-c1ccc(F)cc1 [Compound 1]	< 0.1	3.01 to 12	
CNCCN(C)Cc1c[nH]nc1-c1ccc(F)cc1 [Compound 2, N^1-((3-(4-fluorophenyl)-1H-pyrazol-4-yl)methyl)-N^1,N^2-dimethylethane-1,2-diamine]	< 0.1		> 12
CN(CCN)Cc1cn(C)nc1-c1ccc(F)cc1 [Compound 3]	< 0.1	> 12	
CN(CCN)Cc1cnn(C)c1-c1ccc(F)cc1 [Compound 4]	< 0.1		> 12
CCN(CCNC)Cc1c[nH]nc1-c1ccc(F)cc1 [Compound 9]		> 12	
CNCCN(C)Cc1cnn(C)c1-c1ccc(F)cc1 [Compound 10]		> 12	
CNCCN(C)Cc1cn(CC2CCOCC2)nc1-c1ccc(F)cc1 [Compound 11]		> 12	
CNCCN(C)Cc1cnn(CC2CCOCC2)c1-c1ccc(F)cc1 [Compound 12]	0.101 to 1	> 12	
CNCCN(C)Cc1c[nH]nc1-c1cccc(N)c1 [Compound 32]	< 0.1	> 12	
CNCCN(C)Cc1c[nH]nc1-c1ccc(CC#N)cc1 [Compound 34]	< 0.1	> 12	
CNCCN(C)Cc1c[nH]nc1-c1ccccc1O [Compound 35]	0.101 to 1	> 12	
CNCCN(C)Cc1c[nH]nc1-c1ccccc1Oc1ccccc1 [Compound 36]	1.01 to 3	> 12	
CNCCN(C)Cc1c[nH]nc1-c1cccc(OC(F)(F)F)c1 [Compound 39]	< 0.1	> 12	
CNCCN(C)Cc1c[nH]nc1-c1ccccc1NS(C)(=O)=O [Compound 41]	3.01 to 10	> 12	
CNCCN(C)Cc1c[nH]nc1-c1cccc(NC(C)=O)c1 [Compound 42]	< 0.1	> 12	
CNCCN(C)Cc1c[nH]nc1-c1cccc(C(C)=O)c1 [Compound 44]	< 0.1	> 12	
CNCCN(C)Cc1c[nH]nc1-c1ccc(C(=O)c2ccccc2)cc1 [Compound 45]	< 0.1	< 3	
CNCCN(C)Cc1c[nH]nc1-c1ccccc1-c1ccccc1 [Compound 46]	3.01 to 10	> 12	
CNCCN(C)Cc1c[nH]nc1-c1ccc(-c2ccccc2)cc1 [Compound 47]	< 0.1	< 3	
CNCCN(C)Cc1c[nH]nc1-c1ccccc1F [Compound 48]	< 0.1	> 12	
CNCCN(C)Cc1c[nH]nc1-c1ccc(F)cc1F [Compound 49]	< 0.1	> 12	
CNCCN(C)Cc1c[nH]nc1-c1cc(F)ccc1F [Compound 50]	< 0.1	> 12	
CNCCN(C)Cc1c[nH]nc1-c1ccc(F)c(F)c1 [Compound 51]	< 0.1	> 12	

SMILES	IC50 (Full-length human PRMT6) [µM]	EC30 [1, 2] [µM]	EC30 ([1]; RKO, 72 h) [µM]
CNCCN(C)Cc1c[nH]nc1-c1ccc(OC)c(F)c1 [Compound 52]	< 0.1	> 12	
CNCCN(C)Cc1c[nH]nc1-c1cc(Cl)ccc1OC [Compound 53]	0.101 to 1	> 12	
CNCCN(C)Cc1c[nH]nc1-c1cccc(OC)c1OC [Compound 54]	0.101 to 1	> 12	
CNCCN(C)Cc1c[nH]nc1-c1ccc(OC)cc1OC [Compound 55]	< 0.1	> 12	
CNCCN(C)Cc1c[nH]nc1-c1c(OC)cccc1OC [Compound 56]	1.01 to 3	> 12	
CNCCN(C)Cc1c[nH]nc1-c1cccc2ccccc12 [Compound 57]	< 0.1	> 12	
CNCCN(C)Cc1c[nH]nc1-c1ccc2ccccc2c1 [Compound 58]	< 0.1	> 12	
CNCCN(C)Cc1cn(CCC(O)CO)nc1-c1ccc(F)cc1 (stereo not drawn) [Compound 59]	0.101 to 1	> 12	
CCNCCN(C)Cc1c[nH]nc1-c1ccc(F)cc1 [Compound 60]	< 0.1	> 12	
COCCn1cc(CN(C)CCN(C)C)c(-c2ccc(F)cc2)n1 [Compound 61]		> 12	
CCN(CCN)Cc1c[nH]nc1-c1ccc(F)cc1 [Compound 62]	< 0.1	> 12	
CCCN(CCN)Cc1c[nH]nc1-c1ccc(F)cc1 [Compound 63]	1.01 to 3	> 12	
COCCn1ncc(CN(C)CCN(C)C)c1-c1ccc(F)cc1 [Compound 64]	1.01 to 3		> 12
CN(CCN)Cc1cnn(CCO)c1-c1ccc(F)cc1 [Compound 65]	0.101 to 1	> 12	
CN(CCN)Cc1cn(CCO)nc1-c1ccc(F)cc1 [Compound 66]	1.01 to 3	> 12	
CC(C)Oc1ccc(-c2n[nH]cc2CN(C)CCN)cc1 [Compound 67]		> 12	
CN(CCN)Cc1c[nH]nc1-c1ccc(C#N)cc1 [Compound 68]	< 0.1	> 12	
CN(CCN)Cc1n[nH]cc1-c1ccc(F)cc1 [Compound 69]	< 0.1	3.01 to 12	
CN(CCN)Cc1c[nH]nc1-c1cccc(C#N)c1 [Compound 70]	< 0.1	> 12	
CN(CCN)Cc1c[nH]nc1-c1cccc(F)c1 [Compound 71]	< 0.1	3.01 to 12	
CN(CCN)Cc1c[nH]nc1-c1ccccc1F [Compound 72]	< 0.1	> 12	
CN(CCN)Cc1c[nH]nc1-c1ccccc1 [Compound 73]	< 0.1	> 12	
CN(CCN)Cc1c[nH]nc1-c1ccc(C(C)(C)C)cc1 [Compound 74]	< 0.1	3.01 to 12	

SMILES	IC50 (Full-length human PRMT6) [µM]	EC30 [1, 2] [µM]	EC30 ([1]; RKO, 72 h) [µM]
CC(C)N(CCN)Cc1c[nH]nc1-c1ccc(F)cc1 [Compound 75]	1.01 to 3	> 12	
CN(CCN)Cc1cn(CC(O)CO)nc1-c1ccc(F)cc1 (stereo not drawn) [Compound 76]	1.01 to 3	> 12	
CN(CCN)Cc1cn(C2COC2)nc1-c1ccc(F)cc1 [Compound 77]	0.101 to 1		> 12
NCCN(Cc1c[nH]nc1-c1ccc(F)cc1)C1CC1 [Compound 78]	< 0.1	3.01 to 12	
CN(CCN)Cc1cn(CC2COC2)nc1-c1ccc(F)cc1 [Compound 79]		> 12	
CN(CCN)Cc1cnn(CC2COC2)c1-c1ccc(F)cc1 [Compound 80]		> 12	
CN(CCN)Cc1cnn(C2COC2)c1-c1ccc(F)cc1 [Compound 81]	0.101 to 1	> 12	
CN(CCN)Cc1c[nH]nc1-c1ccc(N2CCNCC2)cc1 [Compound 82]	0.101 to 1	> 12	
CN(CCN)Cc1nn(C)cc1-c1ccc(C#N)cc1 [Compound 83]	< 0.1	3.01 to 12	
CN(CCN)Cc1c(-c2ccc(C#N)cc2)cnn1C [Compound 84]		> 12	
CN(CCN)Cc1c[nH]nc1-c1ccc(C(F)(F)F)cc1C(F)(F)F [Compound 85]	0.101 to 1		> 12
CN(CCN)Cc1c[nH]nc1-c1ccc(Cl)cc1Cl [Compound 86]	< 0.1	3.01 to 12	
COc1ccc(-c2n[nH]cc2CN(C)CCN)c(OC)c1 [Compound 87]	0.101 to 1	> 12	
Cc1ccc(-c2n[nH]cc2CN(C)CCN)c(C)c1 [Compound 88]	< 0.1	> 12	
CN(CCN)Cc1c[nH]nc1-c1ccc(F)cc1Cl [Compound 89]	< 0.1	3.01 to 12	
Cc1ccc(-c2n[nH]cc2CN(C)CCN)c(Cl)c1 [Compound 90]	< 0.1	3.01 to 12	
Cc1ccc(Cl)c(-c2n[nH]cc2CN(C)CCN)c1 [Compound 91]	0.101 to 1	> 12	
CN(CCN)Cc1c[nH]nc1-c1ccc(C(F)(F)F)cc1 [Compound 92]	< 0.1	< 3	
CN(CCN)Cc1c[nH]nc1-c1ccc(OC(F)(F)F)cc1 [Compound 93]	< 0.1	< 3	
CN(CCN)Cc1c[nH]nc1-c1ccc(OC(F)F)cc1 [Compound 94]	< 0.1	< 3	
CC(C)Oc1ccc(-c2n[nH]cc2CN(C)CCN)cc1Cl [Compound 168]	< 0.1	< 3	
